One may read the Ki as a measure of affinity in units of concentration, obtained from inhibition or displacement.

Read-outs that look alike come from different tables or passages of the source.

One assay addresses T1, human 5-HT1A receptor (Homo sapiens, UniProt P08908).
T1 construct: expressed in transfected cells
T1 sequence (P08908 1-422): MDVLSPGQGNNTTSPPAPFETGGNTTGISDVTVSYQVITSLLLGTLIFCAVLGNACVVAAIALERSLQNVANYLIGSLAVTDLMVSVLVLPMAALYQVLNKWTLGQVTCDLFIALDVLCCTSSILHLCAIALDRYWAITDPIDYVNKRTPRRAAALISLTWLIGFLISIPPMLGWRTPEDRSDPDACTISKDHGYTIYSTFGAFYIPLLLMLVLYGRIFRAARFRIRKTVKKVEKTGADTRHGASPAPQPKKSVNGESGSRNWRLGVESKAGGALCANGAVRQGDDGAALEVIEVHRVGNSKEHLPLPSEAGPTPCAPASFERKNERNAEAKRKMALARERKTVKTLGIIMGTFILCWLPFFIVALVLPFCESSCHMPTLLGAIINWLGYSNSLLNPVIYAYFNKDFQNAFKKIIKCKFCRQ
Put plainly: 5-HT1A receptor binding assay with [3H]8-OH-DPAT in CHO cell membranes. The conditions noted are these: [3H]8-OH-DPAT 1.5 nM, membranes of CHO cells expressing human 5-HT1A receptor. As for the experimental part: A stable Chinese hamster ovary cell line expressing the human 5-HT1A receptor subtype (5H-HT1A.CHO cells) was employed throughout this procedure. Cells were maintained in DMEM supplemented with 10% fetal calf serum, non-essential amino acids and penicillin/ streptomycin.
Cells were grown to 95-100% confluency as a monolayer before membranes were harvested for binding studies. Cells were gently scraped from the culture plates, transferred to centrifuge tubes, and washed twice by centrifugation (at 2000 rpm for 10 min., 4°C) in buffer (50 mM Tris; pH 7.5). The resulting pellets were aliquoted and stored at -80•C until needed. On the day of assay, the cells were thawed on ice, and resuspended in buffer. Studies were conducted using [^3H]8-OH-DPAT as the radioligand. The binding assay was performed in 96 well microtiter plates in a final total volume of 250 µL of buffer. […] Non-specific binding was determined in the presence of 10 µM 5HT. Saturation analysis was conducted by using [^3H]8-OH-DPAT at concentrations ranging from 0.3-30 nM. Following a 30 minute incubation at room temperature, the reaction was terminated by the addition of ice cold buffer and rapid filtration using a M-96 Brandel Cell Harvester through a GF/B filter presoaked for 30 minutes in 0.5% polyethyleneimine.

Another assay addresses T2, serotonin transporter (Rattus norvegicus, UniProt P31652).
T2 construct: frontal cortical membranes prepared from male Sprague-Dawley rats; from tissue; host or cells: frontal cortex membranes of male Sprague-Dawley rats
Put plainly: Serotonin transporter affinity, 3H-paroxetine binding to frontal cortical membranes. The arrangement: species or system Sprague-Dawley rats. Particulars: 3H-paroxetine 0.1 nM, head also allows % Inh. @.1 µM.

[1] abbreviates: read-out: ST (Ki, nM, % Inh. @.1 µM).

T2 sequence (P31652 whole entry): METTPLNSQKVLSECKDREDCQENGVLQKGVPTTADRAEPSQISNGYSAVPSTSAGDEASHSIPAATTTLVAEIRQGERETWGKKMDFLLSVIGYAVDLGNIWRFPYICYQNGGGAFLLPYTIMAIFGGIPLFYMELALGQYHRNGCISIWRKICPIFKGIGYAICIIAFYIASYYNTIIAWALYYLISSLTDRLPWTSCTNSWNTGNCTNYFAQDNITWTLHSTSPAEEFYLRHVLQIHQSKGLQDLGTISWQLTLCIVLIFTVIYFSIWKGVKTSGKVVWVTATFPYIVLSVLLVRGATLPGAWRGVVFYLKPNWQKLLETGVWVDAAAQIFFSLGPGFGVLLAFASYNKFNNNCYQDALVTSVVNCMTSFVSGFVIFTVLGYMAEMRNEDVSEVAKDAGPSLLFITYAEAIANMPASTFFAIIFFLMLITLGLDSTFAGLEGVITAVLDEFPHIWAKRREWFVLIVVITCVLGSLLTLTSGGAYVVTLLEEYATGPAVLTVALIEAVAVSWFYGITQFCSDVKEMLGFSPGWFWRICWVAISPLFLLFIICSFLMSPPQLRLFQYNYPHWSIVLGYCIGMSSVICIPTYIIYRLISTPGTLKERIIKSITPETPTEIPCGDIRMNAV
Description for serotonin transporter: Briefly, frontal cortical membranes prepared from male Sprague-Dawley rats were incubated with ^3H-paroxetine (0.1 nM) for 60 min at 25°C. All tubes also contained either vehicle, test compound (one to eight concentrations), or a saturating concentration of fluoxetine (10 µM) to define specific binding. All reactions were terminated by the addition of ice cold Tris buffer followed by rapid filtration using a Tom Tech filtration device to separate bound from free ^3H-paroxetine.

Compound `Fc1ccc2[nH]cc(CCCNCC3COc4ccccc4N3)c2c1` (stereo not drawn) [Example 20, (3,4-Dihydro-2H-benzo[1,4]oxazin-3-yl-methyl)-[3-(5-fluoro-1H-indol-3-yl)propyl]-amine] came in with a Ki on human 5-HT1A receptor of 12.3 nM. As to `CC(C)N1CC(CNCCCc2c[nH]c3ccc(F)cc23)Oc2ccccc21` (stereo not drawn) [Example 8, [3-(5-Fluoro-1H-indol-3-yl)-propyl]-(4-isopropyl-3,4-dihydro-2H-benzo[1,4]oxazin-2yl-methyl)-amine], the figures for the Ki at human 5-HT1A receptor and on serotonin transporter (setting [1]) were 2.8 nM and 25 nM, respectively. In the case of `CC(C)CN1CC(CNCCCc2c[nH]c3ccc(F)cc23)Oc2ccccc21` (stereo not drawn) [Example 10], the Ki on human 5-HT1A receptor was 8.15 nM; on serotonin transporter (ST (Ki, nM, % Inh. @.1 µM)), 85 nM. As for `c1ccc(CN2CC(CNCCCc3c[nH]c4ccccc34)Oc3ccccc32)cc1` (stereo not drawn) [Example 3, (4-Benzyl-3,4-dihydro-2H-benzo[1,4]oxazin-2ylmethyl)-[3-(1H-indo-3-yl)-propyl]-amine], the Ki at human 5-HT1A receptor worked out at 7.8 nM; at serotonin transporter (ST (Ki, nM, % Inh. @.1 µM)), 21 nM.

Consider `Fc1ccc2[nH]cc(CCCNCC3CN(c4ccccc4)c4ccccc4O3)c2c1` (stereo not drawn) [Example 11, [3-(5-Fluoro-1H-indol-3-yl)-propyl]-(4-phenyl-3,4-dihydro-2H-benzo[1,4]oxazin-2-yl-methyl)-amine], for which the Ki at serotonin transporter (setting [1]) is 43 nM. On to `CCCN1CC(CNCCCc2c[nH]c3ccc(F)cc23)Oc2ccccc21` (stereo not drawn) [Example 14, [3-(5-Fluoro-1H-indol-3-yl)-propyl]-(4-propyl-3,4-dihydro-2H-benzo[1,4]oxazin-2-yl-methyl)-amine], for which the results for the Ki on human 5-HT1A receptor and on serotonin transporter (setting [1]) were 16.8 nM and 26 nM, respectively.

Consider `CN1CC(CNCCCc2c[nH]c3ccc(F)cc23)Oc2cc(Cl)ccc21` (stereo not drawn) [Example 15, (7-Chloro-4-methyl-3,4-dihydro-2H-benzo[1,4]oxazin-2ylmethyl)-[3-(5-fluoro-1H-indol-3-yl)-propyl]-amine], for which the Ki at human 5-HT1A receptor turned out to be 75.2 nM; at serotonin transporter (setting [1]) it was 44 nM. In the case of `CN1CC(CNCCCc2c[nH]c3ccccc23)Oc2ccccc21` (stereo not drawn) [Example 2], the Ki stood at 5.9 nM on human 5-HT1A receptor and 112 nM at serotonin transporter (ST (Ki, nM, % Inh. @.1 µM)).

Take `Fc1ccc2[nH]cc(CCCNCC3CN(c4ccccc4)c4ccccc4O3)c2c1` (single isomer, unassigned; (+)) [Example 19]: the affinity at serotonin transporter (ST (Ki, nM, % Inh. @.1 µM)) corresponds to a Ki of 40 nM. Turning to `CCN1CC(CNCCCc2c[nH]c3ccc(F)cc23)Oc2ccccc21` (stereo not drawn) [Example 13, [3-(5-Fluoro-1H-indol-3-yl)-propyl]-(4-ethyl-3,4-dihydro-2H-benzo[1,4]oxazin-2-yl-methyl)-amine], the Ki on human 5-HT1A receptor worked out at 15.3 nM; at serotonin transporter (setting [1]) it was 15 nM. `Fc1ccc2[nH]cc(CCCNCC3CN(c4ccccc4)c4ccccc4O3)c2c1` (single isomer, unassigned; (-)) [Example 18] gave a Ki on serotonin transporter (ST (Ki, nM, % Inh. @.1 µM)) of 34 nM. Turning to `c1ccc(N2CC(CNCCCc3c[nH]c4ccccc34)Oc3ccccc32)cc1` (stereo not drawn) [Example 7, [3-(1H-Indol-3-yl)-propyl]-4-phenyl-3,(4-dihydro-2H-benzo[1,4]oxazin-2-yl-methyl)-amine], the Ki at human 5-HT1A receptor was found to be 30.2 nM.

In the case of `COc1ccc2c(c1)OC(CNCCCc1c[nH]c3ccc(F)cc13)CN2` (stereo not drawn) [Example 17], the Ki at human 5-HT1A receptor was 103 nM; at serotonin transporter (setting [1]) it was 15 nM.

Regarding `c1ccc2c(c1)NCC(CNCCCc1c[nH]c3ccccc13)O2` (stereo not drawn) [Example 1], the values for the Ki on human 5-HT1A receptor and on serotonin transporter (setting [1]) were 6.9 nM and 79 nM, respectively.

As to `CN1CC(CNCCCc2c[nH]c3ccc(F)cc23)Oc2ccccc21` (stereo not drawn) [Example 5, [3-(5-Fluoro-1H-indol-3-yl)-propyl]-(4-methyl-3,4-dihydro-2H-benzo[1,4]oxazin-2-yl-methyl)-amine], the values for the inhibition constant (Ki) on human 5-HT1A receptor and at serotonin transporter (setting [1]) were 8.5 nM and 5.7 nM, respectively.

Turning to `Fc1ccc2[nH]cc(CCCNCC3CNc4ccccc4O3)c2c1` (stereo not drawn) [Example 16, (3,4-Dihydro-2H-benzo[1,4]oxazin-2ylmethyl)-[3-(5-fluoro-1H-indol-3-yl)-propyl]-amine], the results for the Ki at human 5-HT1A receptor and on serotonin transporter (setting [1]) were 11 nM and 16 nM, respectively.

Values taken from EP1140925B1, “(3,4 DIHYDRO-2H-BENZO[1,4] OXAZINYL-METHYL)- 3-(1H-INDOL-3- YL)-ALKYL -AMINES” (Wyeth, priority 1999, dated 2000).
